Drawing on ChEMBL document CHEMBL1145498, “A systematic interaction map of validated kinase inhibitors with Ser/Thr kinases” (Proc Natl Acad Sci U S A, 2007), this text covers ΔTm for five compounds.

The target of assay [1] is cAMP-dependent protein kinase catalytic subunit alpha (Homo sapiens) (UniProt P17612).
Assay [2] deals with Serine/threonine-protein kinase Nek6 (Homo sapiens) (UniProt Q9HC98).
In assay [3] the target is Dual specificity protein kinase CLK2 (Homo sapiens) (UniProt P49760).
Assay [4] addresses Serine/threonine-protein kinase 26 (Homo sapiens) (UniProt Q9P289).
In assay [5] the target is Serine/threonine-protein kinase VRK2 (Homo sapiens) (UniProt Q86Y07).
Assay [6] addresses Serine/threonine-protein kinase OSR1 (Homo sapiens) (UniProt O95747).
Assay [7] concerns the target T1, Myotonin-protein kinase (Homo sapiens) (UniProt Q09013).
T1 sequence (whole entry): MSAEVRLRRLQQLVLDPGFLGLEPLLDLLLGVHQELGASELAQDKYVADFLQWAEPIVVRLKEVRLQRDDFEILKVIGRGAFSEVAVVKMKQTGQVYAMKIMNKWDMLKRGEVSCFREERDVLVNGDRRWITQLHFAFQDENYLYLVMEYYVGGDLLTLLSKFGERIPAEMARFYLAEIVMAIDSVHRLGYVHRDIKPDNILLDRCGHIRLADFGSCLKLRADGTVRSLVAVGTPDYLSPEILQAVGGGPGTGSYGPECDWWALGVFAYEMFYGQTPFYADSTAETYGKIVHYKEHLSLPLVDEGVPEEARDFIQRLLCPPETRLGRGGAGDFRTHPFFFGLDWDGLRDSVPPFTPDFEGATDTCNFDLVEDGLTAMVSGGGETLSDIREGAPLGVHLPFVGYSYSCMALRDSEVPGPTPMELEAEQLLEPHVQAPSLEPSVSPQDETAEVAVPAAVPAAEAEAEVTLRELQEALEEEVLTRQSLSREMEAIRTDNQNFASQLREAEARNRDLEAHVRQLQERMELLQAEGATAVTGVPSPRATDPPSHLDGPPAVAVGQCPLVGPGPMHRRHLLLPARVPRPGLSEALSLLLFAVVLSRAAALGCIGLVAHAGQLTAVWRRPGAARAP

Assay [8] concerns the target Serine/threonine-protein kinase pim-1 (Homo sapiens) (UniProt P11309).
The target of assay [9] is T2, Mitogen-activated protein kinase kinase kinase 5 (Homo sapiens) (UniProt Q99683).
T2 sequence (whole entry): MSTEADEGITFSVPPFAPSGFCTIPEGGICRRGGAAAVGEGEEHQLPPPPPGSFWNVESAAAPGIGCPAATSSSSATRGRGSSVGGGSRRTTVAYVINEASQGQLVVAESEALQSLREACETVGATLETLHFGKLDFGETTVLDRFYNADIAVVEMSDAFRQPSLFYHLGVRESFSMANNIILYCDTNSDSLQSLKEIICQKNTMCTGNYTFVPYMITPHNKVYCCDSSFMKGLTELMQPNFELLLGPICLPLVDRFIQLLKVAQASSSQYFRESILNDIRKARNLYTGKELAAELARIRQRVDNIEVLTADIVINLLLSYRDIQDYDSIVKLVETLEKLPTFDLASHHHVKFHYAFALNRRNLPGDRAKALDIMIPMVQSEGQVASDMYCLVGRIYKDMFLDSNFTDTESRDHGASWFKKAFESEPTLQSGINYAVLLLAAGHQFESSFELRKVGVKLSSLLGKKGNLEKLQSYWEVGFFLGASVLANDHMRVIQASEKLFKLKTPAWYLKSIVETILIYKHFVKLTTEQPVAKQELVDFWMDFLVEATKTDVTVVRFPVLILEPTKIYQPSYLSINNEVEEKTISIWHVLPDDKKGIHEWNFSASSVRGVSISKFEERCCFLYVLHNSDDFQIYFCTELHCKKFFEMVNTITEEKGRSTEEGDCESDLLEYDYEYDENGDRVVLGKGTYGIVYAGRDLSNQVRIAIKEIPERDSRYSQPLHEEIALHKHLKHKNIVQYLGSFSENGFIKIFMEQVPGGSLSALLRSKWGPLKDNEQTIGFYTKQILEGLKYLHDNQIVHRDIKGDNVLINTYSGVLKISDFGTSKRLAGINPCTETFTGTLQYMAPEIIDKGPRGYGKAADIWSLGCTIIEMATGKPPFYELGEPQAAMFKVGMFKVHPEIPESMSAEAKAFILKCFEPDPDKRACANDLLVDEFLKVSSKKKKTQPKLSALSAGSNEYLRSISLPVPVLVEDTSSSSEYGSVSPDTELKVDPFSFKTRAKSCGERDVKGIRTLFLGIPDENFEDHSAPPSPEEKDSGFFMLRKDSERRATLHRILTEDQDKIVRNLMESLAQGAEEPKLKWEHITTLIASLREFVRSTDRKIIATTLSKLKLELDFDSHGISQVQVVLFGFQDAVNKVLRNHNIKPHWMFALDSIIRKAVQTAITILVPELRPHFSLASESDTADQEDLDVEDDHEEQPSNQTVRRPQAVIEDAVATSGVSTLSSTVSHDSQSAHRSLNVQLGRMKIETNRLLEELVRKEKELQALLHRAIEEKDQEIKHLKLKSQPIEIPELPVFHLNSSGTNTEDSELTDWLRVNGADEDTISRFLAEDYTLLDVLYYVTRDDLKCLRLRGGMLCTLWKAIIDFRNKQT

The target of assay [10] is Serine/threonine-protein kinase PLK1 (Homo sapiens) (UniProt P53350).
Assay [11] concerns the target Serine/threonine-protein kinase Chk2 (Homo sapiens, UniProt O96017).
Assay [12] addresses Calcium/calmodulin-dependent protein kinase type II subunit alpha (Homo sapiens) (UniProt Q9UQM7).
The target of assay [13] is Death-associated protein kinase 3 (Homo sapiens) (UniProt O43293).
Assay [14] addresses Serine/threonine-protein kinase PAK 6 (Homo sapiens) (UniProt Q9NQU5).
The target of assay [15] is Calcium/calmodulin-dependent protein kinase type II subunit beta (Homo sapiens) (UniProt Q13554).
Assay [16] concerns the target Cyclin-dependent kinase 2 (Homo sapiens, UniProt P24941).
For assay [17], the target named is Serine/threonine-protein kinase 10 (Homo sapiens) (UniProt O94804).
Assay [18] deals with Serine/threonine-protein kinase RIO2 (Homo sapiens) (UniProt Q9BVS4).

Chain of Serine/threonine-protein kinase OSR1 (Homo sapiens) (O95747 2-527 limits assumed): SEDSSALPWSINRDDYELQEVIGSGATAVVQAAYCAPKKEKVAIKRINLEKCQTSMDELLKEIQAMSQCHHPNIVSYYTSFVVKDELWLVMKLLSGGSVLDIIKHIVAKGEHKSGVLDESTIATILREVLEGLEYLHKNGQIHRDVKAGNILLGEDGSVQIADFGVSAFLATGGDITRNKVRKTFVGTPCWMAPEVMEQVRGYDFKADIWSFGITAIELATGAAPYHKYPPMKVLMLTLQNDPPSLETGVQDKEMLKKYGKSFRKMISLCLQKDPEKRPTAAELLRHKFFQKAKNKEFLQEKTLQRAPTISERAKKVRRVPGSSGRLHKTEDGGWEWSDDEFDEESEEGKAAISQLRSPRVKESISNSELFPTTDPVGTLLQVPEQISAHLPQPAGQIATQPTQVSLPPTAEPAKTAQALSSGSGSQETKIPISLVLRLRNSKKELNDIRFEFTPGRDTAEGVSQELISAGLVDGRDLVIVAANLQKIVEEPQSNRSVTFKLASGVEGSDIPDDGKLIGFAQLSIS
Chain of Serine/threonine-protein kinase VRK2 (Homo sapiens) (Q86Y07 whole entry): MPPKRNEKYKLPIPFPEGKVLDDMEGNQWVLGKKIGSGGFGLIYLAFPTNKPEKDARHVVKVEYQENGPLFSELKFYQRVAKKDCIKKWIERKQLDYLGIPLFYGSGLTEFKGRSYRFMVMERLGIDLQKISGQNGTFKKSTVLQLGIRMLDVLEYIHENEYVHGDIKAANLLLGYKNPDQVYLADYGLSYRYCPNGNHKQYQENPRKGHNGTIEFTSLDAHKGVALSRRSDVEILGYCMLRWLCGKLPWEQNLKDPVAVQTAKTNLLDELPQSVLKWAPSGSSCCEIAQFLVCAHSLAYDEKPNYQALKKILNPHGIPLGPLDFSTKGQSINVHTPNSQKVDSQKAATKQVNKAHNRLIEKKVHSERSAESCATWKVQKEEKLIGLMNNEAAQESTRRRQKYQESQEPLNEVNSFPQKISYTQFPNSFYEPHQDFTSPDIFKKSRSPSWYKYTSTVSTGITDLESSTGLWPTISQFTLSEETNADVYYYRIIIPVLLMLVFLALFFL
Chain of Serine/threonine-protein kinase pim-1 (Homo sapiens) (P11309 whole entry, looked up): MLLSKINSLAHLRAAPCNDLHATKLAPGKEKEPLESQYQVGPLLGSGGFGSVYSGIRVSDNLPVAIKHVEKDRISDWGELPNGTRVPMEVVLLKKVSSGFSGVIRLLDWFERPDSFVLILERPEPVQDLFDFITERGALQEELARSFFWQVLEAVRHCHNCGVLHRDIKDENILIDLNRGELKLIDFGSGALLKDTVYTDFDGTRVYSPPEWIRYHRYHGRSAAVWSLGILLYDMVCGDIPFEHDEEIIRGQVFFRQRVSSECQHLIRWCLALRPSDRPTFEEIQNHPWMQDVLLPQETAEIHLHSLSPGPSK
Chain of Serine/threonine-protein kinase Chk2 (O96017 whole entry): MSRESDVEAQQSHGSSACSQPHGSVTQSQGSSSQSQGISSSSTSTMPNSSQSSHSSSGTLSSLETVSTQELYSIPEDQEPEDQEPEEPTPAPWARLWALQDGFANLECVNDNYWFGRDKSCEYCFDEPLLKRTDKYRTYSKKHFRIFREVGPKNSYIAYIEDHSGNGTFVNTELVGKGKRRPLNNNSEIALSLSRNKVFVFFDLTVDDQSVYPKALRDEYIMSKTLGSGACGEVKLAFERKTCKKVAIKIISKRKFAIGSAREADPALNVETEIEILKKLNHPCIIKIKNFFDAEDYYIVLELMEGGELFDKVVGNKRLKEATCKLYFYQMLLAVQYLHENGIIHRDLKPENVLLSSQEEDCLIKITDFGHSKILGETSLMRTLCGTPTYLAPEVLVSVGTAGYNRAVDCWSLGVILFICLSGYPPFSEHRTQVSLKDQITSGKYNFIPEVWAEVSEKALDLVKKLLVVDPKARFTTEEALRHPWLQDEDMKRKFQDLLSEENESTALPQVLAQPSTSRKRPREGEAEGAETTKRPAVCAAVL
Chain of Serine/threonine-protein kinase 10 (Homo sapiens) (O94804 whole entry, looked up): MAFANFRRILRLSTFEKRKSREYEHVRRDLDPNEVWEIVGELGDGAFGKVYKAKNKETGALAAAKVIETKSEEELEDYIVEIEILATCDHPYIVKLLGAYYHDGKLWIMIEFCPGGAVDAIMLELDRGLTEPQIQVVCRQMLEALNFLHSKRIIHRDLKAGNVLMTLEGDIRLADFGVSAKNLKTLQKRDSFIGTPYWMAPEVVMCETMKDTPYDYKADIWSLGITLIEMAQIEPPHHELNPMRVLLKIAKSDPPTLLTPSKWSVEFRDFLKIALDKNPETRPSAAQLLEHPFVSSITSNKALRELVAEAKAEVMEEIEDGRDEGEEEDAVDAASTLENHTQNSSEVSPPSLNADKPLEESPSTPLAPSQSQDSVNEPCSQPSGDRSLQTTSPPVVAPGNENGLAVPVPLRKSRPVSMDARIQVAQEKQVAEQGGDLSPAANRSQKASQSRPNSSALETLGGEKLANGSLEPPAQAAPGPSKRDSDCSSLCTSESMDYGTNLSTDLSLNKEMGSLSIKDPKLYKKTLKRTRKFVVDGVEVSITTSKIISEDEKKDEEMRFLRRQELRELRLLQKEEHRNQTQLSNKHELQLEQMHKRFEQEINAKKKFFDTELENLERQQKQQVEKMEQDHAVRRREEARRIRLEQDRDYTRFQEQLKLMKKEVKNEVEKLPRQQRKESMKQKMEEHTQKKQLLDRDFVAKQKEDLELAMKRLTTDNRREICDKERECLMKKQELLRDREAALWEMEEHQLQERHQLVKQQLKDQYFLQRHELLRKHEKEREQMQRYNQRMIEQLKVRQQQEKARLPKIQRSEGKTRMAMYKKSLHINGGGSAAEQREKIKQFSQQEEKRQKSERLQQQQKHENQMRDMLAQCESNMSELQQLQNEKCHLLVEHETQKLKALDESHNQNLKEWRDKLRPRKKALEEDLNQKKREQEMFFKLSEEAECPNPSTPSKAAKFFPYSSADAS
Chain of Dual specificity protein kinase CLK2 (Homo sapiens) (P49760 whole entry, looked up): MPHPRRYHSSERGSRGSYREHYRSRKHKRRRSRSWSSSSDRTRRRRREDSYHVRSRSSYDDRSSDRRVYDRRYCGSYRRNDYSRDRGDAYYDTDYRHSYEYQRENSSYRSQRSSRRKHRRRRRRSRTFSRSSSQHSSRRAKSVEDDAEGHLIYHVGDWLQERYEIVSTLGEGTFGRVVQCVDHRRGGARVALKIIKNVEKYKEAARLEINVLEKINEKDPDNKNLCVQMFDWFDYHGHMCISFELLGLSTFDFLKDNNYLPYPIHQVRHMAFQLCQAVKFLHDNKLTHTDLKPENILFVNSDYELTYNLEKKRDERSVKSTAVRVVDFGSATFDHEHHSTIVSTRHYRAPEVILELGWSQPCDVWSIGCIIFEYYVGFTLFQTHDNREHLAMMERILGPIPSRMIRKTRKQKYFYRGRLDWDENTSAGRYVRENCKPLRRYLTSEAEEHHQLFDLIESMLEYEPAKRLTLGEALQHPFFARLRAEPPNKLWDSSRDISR
Chain of Serine/threonine-protein kinase PAK 6 (Homo sapiens) (Q9NQU5 whole entry, looked up): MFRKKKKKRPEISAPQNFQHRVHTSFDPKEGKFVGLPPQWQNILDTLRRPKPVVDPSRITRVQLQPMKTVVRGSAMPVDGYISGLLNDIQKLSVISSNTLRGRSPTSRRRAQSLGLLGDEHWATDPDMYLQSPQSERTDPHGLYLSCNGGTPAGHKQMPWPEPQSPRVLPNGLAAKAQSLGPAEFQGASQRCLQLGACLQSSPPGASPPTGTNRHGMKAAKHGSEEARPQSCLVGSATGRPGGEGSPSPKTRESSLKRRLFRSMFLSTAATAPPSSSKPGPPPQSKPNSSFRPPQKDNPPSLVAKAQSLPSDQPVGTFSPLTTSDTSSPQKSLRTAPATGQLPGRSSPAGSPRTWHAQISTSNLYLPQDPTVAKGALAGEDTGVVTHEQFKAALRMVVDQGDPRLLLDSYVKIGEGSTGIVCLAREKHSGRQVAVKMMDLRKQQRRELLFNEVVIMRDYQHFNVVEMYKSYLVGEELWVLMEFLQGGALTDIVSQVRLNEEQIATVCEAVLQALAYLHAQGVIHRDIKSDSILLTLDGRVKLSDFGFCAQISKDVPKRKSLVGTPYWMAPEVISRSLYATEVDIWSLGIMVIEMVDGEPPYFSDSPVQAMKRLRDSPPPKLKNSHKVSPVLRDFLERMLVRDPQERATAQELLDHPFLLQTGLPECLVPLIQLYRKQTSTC
Chain of Serine/threonine-protein kinase Nek6 (Homo sapiens) (Q9HC98 whole entry): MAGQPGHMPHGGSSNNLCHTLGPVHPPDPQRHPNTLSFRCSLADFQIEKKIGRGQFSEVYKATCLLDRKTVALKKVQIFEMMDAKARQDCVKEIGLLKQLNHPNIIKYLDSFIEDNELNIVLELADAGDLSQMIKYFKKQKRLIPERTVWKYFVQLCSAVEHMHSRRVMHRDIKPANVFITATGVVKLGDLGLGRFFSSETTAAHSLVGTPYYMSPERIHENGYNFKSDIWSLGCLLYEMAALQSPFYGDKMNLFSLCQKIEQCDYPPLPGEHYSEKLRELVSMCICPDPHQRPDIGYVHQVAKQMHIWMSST
Chain of Serine/threonine-protein kinase PLK1 (Homo sapiens) (P53350 whole entry): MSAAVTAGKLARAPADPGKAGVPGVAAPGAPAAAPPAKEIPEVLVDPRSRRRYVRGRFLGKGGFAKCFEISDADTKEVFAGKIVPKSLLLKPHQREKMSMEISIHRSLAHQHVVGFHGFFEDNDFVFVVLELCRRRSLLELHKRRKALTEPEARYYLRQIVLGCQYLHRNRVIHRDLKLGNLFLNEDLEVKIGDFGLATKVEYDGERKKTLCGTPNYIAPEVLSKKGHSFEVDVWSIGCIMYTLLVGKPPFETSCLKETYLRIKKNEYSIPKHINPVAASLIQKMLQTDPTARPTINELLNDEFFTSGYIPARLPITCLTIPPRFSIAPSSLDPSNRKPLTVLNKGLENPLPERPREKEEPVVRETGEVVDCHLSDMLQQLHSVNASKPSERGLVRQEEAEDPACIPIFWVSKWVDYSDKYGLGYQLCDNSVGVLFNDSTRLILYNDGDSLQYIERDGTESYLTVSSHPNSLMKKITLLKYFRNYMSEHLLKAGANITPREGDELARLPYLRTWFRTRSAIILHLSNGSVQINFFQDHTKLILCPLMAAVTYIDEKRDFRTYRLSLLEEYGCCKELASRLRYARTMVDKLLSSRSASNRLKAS

As to `Cc1cncc2cccc(S(=O)(=O)N3CCCNC[C@@H]3C)c12`, the ΔTm (commonly the shift of the melting midpoint relative to a reference) was 3.5 °C in [1]; 0 °C in assay [2]; 1.8 °C in assay [3]; 0.8 °C in assay [4]; 1.2 °C in assay [5]; 0.6 °C in assay [6]. Further, the ΔTm in assay [7] is 0.4 °C; in [8], 0.7 °C; in assay [9] it was 1.8 °C; in [10], 0.7 °C; in [11] it was 1.5 °C; in assay [12], 1.2 °C. For the same compound, the ΔTm in [13] was 4.8 °C; in assay [14], 0.7 °C; in assay [15] it was 1.1 °C; in assay [16] it was 0.7 °C; in assay [17] it was 3.5 °C; in assay [18], 0.4 °C.
Turning to `O=C(O)c1cc(NCc2cc(O)ccc2O)ccc1O`, the ΔTm is -0.2 °C in assay [1]; 0 °C in [2]; -0.1 °C in [3]; -0.1 °C in [4]; -0.2 °C in [5]; 0 °C in assay [6]. Moreover, the ΔTm in [7] is 0.3 °C; in assay [8] it was 0 °C; in [9], -0.1 °C; in assay [10] it was 0.3 °C; in assay [11], 0 °C; in [12], 0.4 °C. The ΔTm in assay [13] is -0.4 °C; in [14], -0.1 °C; in [15], 0 °C; in assay [16], 0.4 °C; in [17] it was -0.3 °C; in [18], 0 °C.
With `O=c1sn(Cc2ccccc2)c(=S)n1Cc1ccccc1`, the ΔTm was 0.4 °C in assay [1]; 0.1 °C in assay [2]; -0.2 °C in [3]; 0.5 °C in assay [4]; 0.3 °C in [5]; 0.1 °C in assay [6]. Further, the ΔTm is 0.5 °C in assay [7]; -0.2 °C in assay [8]; 0.2 °C in assay [9]; 1.3 °C in assay [10]; 0.3 °C in assay [11]; 0.3 °C in assay [12]. Also, the ΔTm in assay [13] was -0.2 °C; in assay [14], 0.1 °C; in assay [15], 1 °C; in assay [16], 0.3 °C; in [17], 0.9 °C; in assay [18], 0.1 °C.
In the case of `N#C/C(=C\c1ccc(O)c(O)c1)C(=O)Nc1ccccc1`, the ΔTm in assay [1] turned out to be 0.4 °C; in assay [2], 0.9 °C; in assay [3], 0.9 °C; in assay [4], 0.4 °C; in [5], 0.3 °C; in assay [6] it was 0.6 °C. The ΔTm in assay [7] is -0.1 °C; in assay [8], 1.6 °C; in assay [9], -0.2 °C; in assay [10], 0.7 °C; in assay [11] it was 0.1 °C; in [12], 0.3 °C. Besides, the ΔTm in assay [13] was found to be 1.4 °C; in assay [14] it was 0 °C; in assay [15], 0.2 °C; in assay [16], 1.1 °C; in assay [17] it was 1.2 °C; in assay [18], 0.5 °C.
In the case of `O=c1ccc2ccc(O)c(O)c2o1` [DAPHNETIN], the ΔTm in assay [1] is 0.6 °C; in assay [2], -0.3 °C; in assay [3], 0.1 °C; in assay [4], -0.2 °C; in assay [5] it was -0.1 °C; in [6], 0.1 °C. Moreover, the ΔTm in [7] is -0.6 °C; in assay [8], 0.2 °C; in [9] it was -0.6 °C; in assay [10] it was -0.1 °C; in assay [11], -0.1 °C; in [12] it was 0.4 °C. In addition, the ΔTm in assay [13] was -0.6 °C; in assay [14] it was -0.2 °C; in [15] it was 0.1 °C; in assay [16], 0.7 °C; in [17], -0.5 °C; in assay [18], 0.7 °C.
